Test results published in patent US9669009B2, “Rapid disperse dosage form containing levetiracetam” (APRECIA PHARMACEUTICALS COMPANY, priority 2013, dated 2017).
Entries after “also recorded” stand apart in the source; their conditions may differ. Like-named read-outs stand apart in the source and are kept apart here.

Legend:
[1] = Evaluation of antioxidants for LEV stability in raw tablet compositions (Example 6)
Description: The following procedures were used to identify the preferred antioxidant(s) suitable stabilizing LEV against oxidative degradation.
A powder blend containing the following ingredients in the amounts indicated was prepared.
A printing fluid containing the following ingredients in the amounts indicated was prepared.
For example, the amount of antioxidant would be “(IIG daily limit)/2” for a 1000 mg tablet administered twice daily. It should be understood that IIG limits are periodically changed by regulatory agencies. Accordingly, the limits specified below should be considered approximations and not as absolute limits to the amount of antioxidant that can be included in a dosage form.
The antioxidant was mixed with 6 mL of printing fluid. That mixture was then mixed with 30 g of powder blend to form a raw tablet composition, each of which was exposed to the following conditions: Condition 1—store composition at 70 C in tightly sealed glass jar; Condition 2—store composition at 50 C in loosely covered glass jar; and Condition 3—store composition at 40 C/75% RH in open glass jar.
The samples were subsequently analyzed by HPLC/MS and the identity of two key degradants was determined by comparison to standards. The key degradants were levetiracetam acid and oxo-levetiracetam.

[2] = Oxidative degradation of LEV in 3DP dosage form, HPLC/MS; assay type: physicochemical; conditions: antioxidant absent, oxidative excipient (povidone or silica with peroxide impurity) present
Description: The stability of LEV to oxidative degradation when included in a 3DP dosage form of the invention was determined by exposing finished dosage forms to heat. The formation of degradants was observed and monitored by HPLC/MS as detailed below. […] Povidone and silica, however, are important functional ingredients. Accordingly, the invention provides a stable rapidly dispersible dosage form comprising LEV, oxidative excipient, antioxidant, binder and disintegrant, wherein the matrix comprises 0.1% by wt or less of an oxidative degradant of LEV after storage for six months at 21° C. and 75% RH.
The following procedures were used to analyze three-dimensionally printed solid porous orodispersible matrices and in support of drug-stability studies.
Samples were prepared by transferring approximately 380 mg of sample to a 50-mL volumetric flask with 30 mL of Diluent. The sample was sonicated for 10 minutes then filled to volume with Diluent. A portion was filtered through a 0.22 μm nylon filter, discarding the first 3-5 mL.
Mass spectrophotometry was conducted by directly infusing a sodium formate solution into the mass spectrometer through the lock spray at 100 μL/min using a syringe pump. The sodium formate peak at m/z 158.9646126 was used for accurate mass analysis. The accurate masses were used for elemental composition analysis using the MassLynx software. […]

[3] = cited from earlier work
[4] = accelerated (60° C.) stress: acidic, alkaline, aqueous, oxidative, thermal or photo; Shah 2012; cited from earlier work
[5] = antioxidant at half IIG daily limit in raw tablet composition, 70 C sealed, 50 C loosely covered, 40 C/75% RH open

For `COc1ccc(O)c(C(C)(C)C)c1` [BHA, Butylated hydroxyanisole], the “stability against oxidative degradation and color formation” value (shortened to “stability”) [1, 5] was “improved stability against oxidative degradation and against color formation; also recorded: best results”.

For `Cc1c(C)c2c(c(C)c1O)CC[C@@](C)(CCC[C@H](C)CCC[C@H](C)CCCC(C)C)O2` [Vitamin E, Alpha-tocopherol], the “stability” value [1] was “improved stability against oxidative degradation and against color formation”.

With `O=S([O-])O.[Na+]` [sodium bisulfite, Sodium bisulfite] the “stability” value [1, 5] was “improved stability against oxidative degradation and against color formation” and the “stability” value ([1]; antioxidant at half IIG daily limit in raw tablet composition, 70 C sealed, 50 C loosely covered, 40 C/75% RH open, listed as Sodium bisulfite) was “best results”.

In the case of `O=S([O-])[O-].[Na+].[Na+]` [sodium sulfite, Sodium sulfite], the “stability” value [1, 5] is reported as “improved stability against oxidative degradation and against color formation; also recorded: best results”.

For `CC[C@@H](C(N)=O)N1CCCC1=O` [Levetiracetam, (S)-2-(2-oxopyrrolidin-1-yl)butanamide], the “oxidative degradation of LEV in 3DP dosage form exposed to heat” value [2] is given as “undergoes oxidative degradation to form oxo-levetiracetam”, the solubility in acetonitrile ([3]; acetonitrile) is given as 5.7 g/100 mL and the solubility in chloroform ([3]; chloroform) is given as 65.3 g/100 mL. The solubility in ethanol ([3]; ethanol) was 16.5 g/100 mL, the solubility in methanol ([3]; methanol) was 53.6 g/100 mL and the solubility in n-hexane ([3]; n-hexane) was “practically insoluble”. The solubility in water ([3]; water) was 104.0 g/100 mL and the degradation under stress [4] was “substantial degradation”.

For `CSCC[C@H](N)C(=O)O` [methionine, Methionine], the “stability” value [1] was “improved stability against oxidative degradation and against color formation”.
